Source: patent US20240139142A1, “METHOD FOR PREVENTING OR TREATING LIVER DISEASE” (priority 2022, published 2024)
Where two headings read alike, the source gives them in different places.

What was measured:
[1] = test system: liver hepatocellular carcinoma cell line Mahlavu; experiment: MTS analysis, growth inhibition (GI50); format: cell-based; conditions: read-out: GI50, Mahlavu liver hepatocellular carcinoma cell line
cancer cells = conditions: background statement; cited from earlier work
[2] = test system: liver hepatocellular carcinoma cell line SNU-449; experiment: MTS analysis, growth inhibition (GI50); format: cell-based; conditions: for GI50: Homo sapiens
[3] = test system: wild-type liver hepatocellular carcinoma cell line SNU-499; experiment: MTS assay cell viability IC50; format: cell-based
[4] = test system: wild-type liver hepatocellular carcinoma cell line Hep3B; experiment: MTS assay cell viability IC50; format: cell-based; conditions: Homo sapiens
Experimental: (§1) In order to look for the biomarkers of drug resistance for liver hepatocellular carcinoma, liver hepatocellular carcinoma cell line Hep3B and SNU-449 were continually cultured in an environment with Sorafenib, and the concentration of Sorafenib was increased gradually. Specifically, broth containing 3.5 μM to 10.8 μM Sorafenib was used as a starting concentration (compared to the IC50 of the cell), and the concentration increased 0.5 μM every week until the Sorafenib-drug resistance-liver hepatocellular carcinoma cell line was established. […] With the same experimental procedures as described above, the Sorafenib-drug resistance-cell line was also cultured in a cell broth containing Regorafenib, and the cell viability was tested by MTS assay.

[5] = test system: Sorafenib-drug resistance-liver hepatocellular carcinoma cell line SNU-499; experiment: MTS assay cell viability IC50; format: cell-based
Experimental: as §1

[6] = test system: Sorafenib-drug resistance-liver hepatocellular carcinoma cell line Hep3B; experiment: MTS assay cell viability IC50; format: cell-based; conditions: Homo sapiens
Experimental: as §1

[7] = test system: liver hepatocellular carcinoma cell line with Nexavar drug resistance; experiment: Protein expression and apoptosis in drug-resistant cell line; format: cell-based
Text: WT: wild-type liver hepatocellular carcinoma cell line. R: Nexavar-drug resistance-liver hepatocellular carcinoma cell line.
After treating liver hepatocellular carcinoma cell line with Nexavar drug resistance by PCH1130 or PCH1152, the expressions of molecules such as USP22, ABCC1, ABCC2 and Twist in liver hepatocellular carcinoma may be decreased, and the expressions of cleaved Caspase-8 and PARP may be increased, which induced the apoptosis of liver hepatocellular carcinoma cells.

[8] = test system: mouse xenograft model of liver hepatocellular carcinoma; experiment: Safety test, median lethal dose (LD50), intravenous injection; format: in vivo
Experimental: (§2) The mouse xenograft model of liver hepatocellular carcinoma was administered with different concentrations of PCH1152 or P1130 via intravenous injection, and the median lethal dose (LD50) was calculated by the number of death and dosage.

[9] = as above; format: in vivo; conditions: in vivo, mouse
Experimental: as §2

[10] = test system: SNU-449 liver hepatocellular carcinoma cell line; experiment: Western blot of apoptosis markers (cleaved caspase 8, cleaved PARP); format: cell-based; conditions: 0.3 μM, 0, 24, 48 and 72 hours
Experimental: SNU-449 liver hepatocellular carcinoma cell line was treated by 0.3 μM isothiocyanate structural modified compounds P1130 and PCH1152, and natural isothiocyanate compound PEITC, and the control group was treated by DSMO. After extracting the proteins in the cells at different time points, such as 0, 24, 48 and 72 hours, analysis and comparison were performed by using western blot. […] The results represent that the two structural modified compounds described above effectively promoted the apoptosis of the liver hepatocellular carcinoma cells (FIG. 1).

[11] = test system: SNU-449 liver hepatocellular carcinoma cell line; experiment: Western blot, apoptosis and ABCC2/Mcl-1/Twist expression; format: cell-based; conditions: low concentration
[12] = test system: SNU-449 liver hepatocellular carcinoma cell line; experiment: Expression of ABCC2, Twist and Mcl-1 after treatment; format: cell-based; conditions: 2.5 μM, 64 hours
Text: (§3) The process of trans-differentiating epithelial cells into motile mesenchymal cells is called epithelial-mesenchymal transition (EMT). EMT is indispensable in development, wound healing and stem cell behavior, and may induce fibrosis and carcinogenesis pathologically. In addition, EMT plays an important role in liver fibrosis, liver cirrhosis and liver hepatocellular carcinoma. […] Moreover, EMT may increase the anti-apoptosis effect, which will result in the development of drug resistance in cancer treatment, and induce the development of stemness of the cancer cells, as well as increase the number of cancer stem cells. The cancer stem cell is one of the important factors in the progression, recurrence, metastasis and drug resistance of the cancer. There is an evidence that in the samples of the liver hepatocellular carcinoma patients with poor prognosis, the overexpressions of Twist and Snail were observed. […] The results above represent that isothiocyanate structural modified compound of the present disclosure may prevent liver carcinogenesis and the growth, invasion, metastasis, progression and recurrence of liver hepatocellular carcinoma via inhibiting epithelial-mesenchymal transition, anti-apoptosis and/or inhibiting drug resistance.

[13] = test system: Mahlavu liver hepatocellular carcinoma cell line; experiment: as above; format: cell-based; conditions: 2.5 μM, 64 hours
Text: as §3

[14] = test system: human normal liver cell line THLE-2; experiment: Western blot, apoptosis and ABCC2/Mcl-1/Twist expression; format: cell-based; conditions: low concentration
[15] = test system: liver hepatocellular carcinoma cell line SNU-449; experiment: MTS assay cell growth, selectivity test; format: cell-based; conditions: SNU-449 vs THLE-2, MTS assay
[16] = test system: Hepatitis B virus-induced ROS in Huh-7 cells; experiment: Removal of HBV-induced ROS, DHE fluorescence; format: cell-based, human; conditions: Huh-7 transfected with pGEM C12, 5 μM PCH1152, 10 μM NAC
Experimental: To examine the effect of PCH1152, NAC or the combination thereof on removing HBV-induced ROS, the Huh-7 cells were remained untreated, or treated with 5 μM PCH1152, 10 μM NAC or 5 μM PCH 1152 plus 10 μM NAC. The ROS was examined by DHE fluorescence, and the difference between each group was compared by Tukey's Multiple Comparison Test.

[17] = SNU-449, MTS analysis, read-out: GI50, SNU-449 liver hepatocellular carcinoma cell line
[18] = read-out: The IC50 of Regorafenib, wild-type liver hepatocellular carcinoma cell line
[19] = read-out: The IC50 of Sorafenib, wild-type liver hepatocellular carcinoma cell line

S=C=NCc1ccccc1 [BITC, benzyl isothiocyanate]
GI50 ([1]; MTS analysis): 3.84 µM | dose needed to have the inhibiting effect on cancer cells (cancer cells): ~10 mM | GI50 [2, 17]: 9.58 µM

CNC(=O)c1cc(Oc2ccc(NC(=O)Nc3ccc(Cl)c(C(F)(F)F)c3)c(F)c2)ccn1 [Regorafenib]
GI50 ([1]; MTS analysis): 5 µM | IC50 [3, 18]: 3.66 µM | IC50 [4, 18]: 4.28 µM | IC50 ([5]; SNU-499, Sorafenib-resistant, read-out: The IC50 of Regorafenib, drug resistance-liver hepatocellular carcinoma cell line): 14.5 µM | IC50 ([6]; Sorafenib-resistant, read-out: The IC50 of Regorafenib, drug resistance-liver hepatocellular carcinoma cell line): 8.33 µM | GI50 [2, 17]: 4.54 µM

CNC(=O)c1cc(Oc2ccc(NC(=O)Nc3ccc(Cl)c(C(F)(F)F)c3)cc2)ccn1 [Sorafenib]
GI50 ([1]; MTS analysis): 3.58 µM | IC50 [3, 19]: 7.89 µM | IC50 [4, 19]: 3.8 µM | IC50 ([5]; SNU-499, read-out: The IC50 of Sorafenib, drug resistance-liver hepatocellular carcinoma cell line): 14.2 µM | IC50 ([6]; read-out: The IC50 of Sorafenib, drug resistance-liver hepatocellular carcinoma cell line): 10.9 µM | GI50 [2, 17]: 2.34 µM

COc1ccc(CCN=C=S)cc1 [P1130]
GI50 [1]: 1.52 µM | effect on drug resistance in liver hepatocellular carcinoma [7]: reversing the drug resistance | expressions of USP22, ABCC1, ABCC2 and Twist [7]: decreased | expressions of cleaved Caspase-8 and PARP [7]: increased | toxicity relative to existing anticancer drug, e.g. Taxotere [8]: comparable | LD50 [9]: 100 to 300 mg/kg | expression levels of cleaved caspase 8 and cleaved PARP [10]: significantly increased | apoptosis of liver hepatocellular carcinoma cell line [11]: promote apoptosis | expressions of ABCC2, Mcl-1 and Twist [11]: inhibit the expressions | expressions of ABCC2, Twist and Mcl-1 [12]: inhibition | expressions of ABCC2, Twist and Mcl-1 [13]: inhibition | GI50 ([2]; SNU-449, read-out: GI50, SNU-449 liver hepatocellular carcinoma cell line): 0.64 µM | increase of the ability of inhibiting the growth of the liver hepatocellular carcinoma cell line ([2]; compared to natural isothiocyanate compounds BITC or PEITC): 12 times | apoptosis promotion and inhibition of ABCC2, Mcl-1, Twist in human normal liver cell line [14]: no such effect

COc1cccc2c1C(=O)c1c(O)c3c(c(O)c1C2=O)C[C@@](O)(C(=O)CO)C[C@@H]3O[C@H]1C[C@H](N)[C@H](O)[C@H](C)O1 [Doxorubicin, reference compound]
selectivity between liver hepatocellular carcinoma cell and normal liver cell [15]: did not have selectivity

S=C=NCCc1ccccc1 [PEITC, phenylethyl isothiocyanate, reference compound]
GI50 ([1]; MTS analysis): 9.59 µM | expression levels of cleaved caspase 8 and cleaved PARP [10]: only slightly increased | GI50 [2, 17]: 7.58 µM

CC(=O)N[C@@H](CS)C(=O)O [NAC, N-acetylcysteine, reference compound]
HBV-induced ROS increasement [16]: significantly reduce
